Results from US6875768B1, “Phthalamide derivatives, intermediates in the production thereof, and agricultural/horticultural insecticides and method for using the same” (Nihon Nohyako Co., Ltd., priority 1999, dated 2005).

How the values were obtained:
[1] = system: diamond back moth (Plutella xylostella); assay type: in vivo; conditions: 1,000 ppm; Chinese cabbage seedling with eggs immersed about 30 seconds; counted six days after the immersion; 25° C.
From the text: Insecticidal effect on diamond back moth (Plutella xylostella)
Adult diamond back moths were released and allowed to oviposit on a Chinese cabbage seedling. […] Six days after the immersion, the hatched insects were counted. […] [formula] Criterion • A - - - Mortality 100% • B - - - Mortality 99-90% • C - - - Mortality 89-80% • D - - - Mortality 79-50%

[2] = system: Common cutworm (Spodoptera litura); assay type: in vivo; conditions: 500 ppm; cabbage leaf immersed about 30 seconds; second-instar larvae; eight days after the inoculation; 25° C.
From the text: Insecticidal Effect on Common cutworm (Spodoptera litura)

[3] = system: rice leafroller (Cnaphalocrosis medinalis); conditions: 500 ppm; rice lamina immersed about 30 seconds; third-instar larvae; four days after the inoculation; 25° C., humidity 70%
Procedure: Insecticidal effect on rice leafroller (Cnaphalocrosis medinalis)
After air-dryness, the lamina was placed in a plastic Petri dish with a diameter of 9 cm whose bottom had been covered with a wetted filter paper. The lamina was inoculated with third-instar larvae of rice leafroller, after which the dish was allowed to stand in a room thermostatted at 25° C. and having a humidity of 70%. Four days after the inoculation, the dead and alive were counted and the insecticidal effect was judged according to the criterion shown in Test Example 1. The test was carried out with triplicate groups of 10 insects.

Measured: insecticidal effect (activity ranking by mortality)

CCN(CC)C(=O)c1c(I)cccc1C(=O)Nc1ncc(C(F)(F)C(F)(F)F)cc1C [Q26-29]
B or higher: all assays above

CCN(CC)C(=O)c1c(I)cccc1C(=O)Nc1ccc(Br)cn1 [Q26-33]
B or higher: all assays above

CC(C)NC(=O)c1c(I)cccc1C(=O)Nc1ccc(C(F)(F)C(F)(F)F)nc1 [Q27-134]
B or higher: all assays above

CC(C)(C)NC(=O)c1c(I)cccc1C(=O)Nc1ccc(C(F)(F)C(F)(F)F)nc1 [Q27-140]
B or higher: all assays above

Cc1cc(Oc2ccc(Br)cc2)ncc1NC(=O)c1cccc(Cl)c1C(=O)NC(C)C [Q27-98]
B or higher: all assays above

CCN(CC)C(=O)c1c(I)cccc1C(=O)Nc1ncc(C(F)(F)C(F)(F)C(F)(F)F)cc1C [Q26-30]
B or higher: all assays above

CC(C)NC(=O)c1c(Cl)cccc1C(=O)Nc1ccc(Oc2ccc(Br)cc2)nc1 [Q27-29]
B or higher: all assays above

CC(C)CSc1ccncc1NC(=O)c1cccc(Cl)c1C(=O)NC(C)C [Q27-32]
B or higher: all assays above

CC(C)NC(=O)c1c(I)cccc1C(=O)Nc1ccc(Cl)nc1 [Q27-133]
B or higher: all assays above

CCN(CC)C(=O)c1c(I)cccc1C(=O)Nc1ccc(C(F)(F)C(F)(F)C(F)(F)F)nc1Cl [Q27-129]
B or higher: all assays above

CC(C)CSc1ccc(NC(=O)c2c(Cl)cccc2C(=O)NC(C)C)cn1 [Q27-127]
B or higher: all assays above

CCN(CC)C(=O)c1c(I)cccc1C(=O)Nc1ncc(C(F)(C(F)(F)F)C(F)(F)F)cc1C [Q26-31]
B or higher: all assays above

CCN(CC)C(=O)c1c(I)cccc1C(=O)Nc1ccc(Oc2ccc(Br)cc2)nc1 [Q27-132]
B or higher: all assays above

CC(C)NC(=O)c1ccccc1C(=O)Nc1ncc(C(F)(F)F)cc1Cl [Q26-1]
B or higher: all assays above

CC(C)(C)NC(=O)c1c(I)cccc1C(=O)Nc1ccc(C(F)(C(F)(F)F)C(F)(F)F)nc1 [Q27-139]
B or higher: all assays above

CC(C)NC(=O)c1c(C(=O)Nc2cccnc2)cccc1[N+](=O)[O-] [Q27-164]
B or higher: all assays above

CC(C)NC(=O)c1cccc(Cl)c1C(=O)Nc1ccc(SC(C)C)nc1 [Q27-126]
B or higher: all assays above

Cc1cc(C(F)(C(F)(F)F)C(F)(F)F)ncc1NC(=O)c1cccc(I)c1C(=O)NC(C)C [Q27-137]
B or higher: all assays above

CSCC(C)NC(=O)c1c(I)cccc1C(=O)Nc1ccc(C(F)(C(F)(F)F)C(F)(F)F)nc1C (stereo not drawn) [Q27-145]
B or higher: all assays above
